We go through two compounds from patent publication US9452185B2, “Mesenchymal stem cells and supports for tissue regeneration, repair and reconstruction” (THE TEXAS A&M UNIVERSITY SYSTEM, priority 2009, dated 2016).

Experiment [1] deals with hMSCs. Briefly: Alkaline phosphatase (ALP) activity of hMSCs in osteogenic media. The experiment is classed as cell-based, human. Here is the method: For non-mineralizing osteogenic differentiation, hMSCs were plated in 12-well plates at 100 cells cm^−2. Upon reaching about 70% confluency, the media was changed to osteogenic base media (OBM) containing 50 μg mL^−1 ascorbic acid and 5 mM β-glycerol phosphate and either GW9662 or DMSO. Media was changed every 2 days for 8-10 days following measurement of ALP activity. For this purpose, the monolayer was washed with PBS and then with ALP reaction buffer (100 mM Tris-HCl, pH 9, containing 100 mM KCl and 1 mM MgCl2). One half mL of ALP buffer then 0.5 mL p-nitrophenol phosphate (PNPP) was rapidly added to the wells. ALP activity was measured as the rate of PNPP conversion to p-nitrophenolate by monitoring the absorbance at 405 nm every 30 seconds for 9 minutes using a plate reader. The rates were normalized against cell number and statistically analyzed using one-way analysis of variance (ANOVA) and Tukey post test for multiple comparisons or by Student's t-test, for single, unrelated comparisons.
Early osteogenic differentiation and alkaline phosphatase assays. MSCs were plated in 6-well plates at an initial plating density of 100 cells per cm^2 and cultured in standard complete media for 6 days until semi-confluence (approximately 5,000 cells per cm^2). Osteogenic base media consisting of complete media containing 5 mM β-GP and 50 μg mL^−1 ascorbate-2-phosphate and the appropriate inhibitor or vehicle was then used to induce early osteogenic differentiation. Assays were allowed to proceed for 8-10 days with changes of media every 2 days. ALP assays were performed as previously described (Gunn et al., 2006, Stem Cells 24:986-991).
In order to characterize the influence of 7AIPM on osteogenic differentiation, hMSC's from two donors were cultured as described elsewhere herein with the addition of varying concentrations of the compound or vehicle to the media. Samples of the media were collected daily for analysis. These samples were analyzed for the presence of OPG and Dkk-1 using ELISA. Alkaline phosphatase activity of the monolayers and cell numbers were measured using a spectrophotometer.

The test system of experiment [2] is β-catenin, GSK3β, PPARγ. Briefly: Intracellular distribution of β-catenin, GSK3β and PPARγ (immunoblot, fluorescence microscopy). The experiment is classed as cell-based, human. The following applies: for GSK3β in the cytoplasm / nuclear β-catenin: MSCs under osteogenic conditions. Here is the method:
Protein extraction, gel electrophoresis and western blotting. Nuclear extracts were performed by Triton extraction and differential centrifugation as previously described (Gregory et al., 2003, J Biol Chem 278:2806728078). Proteins were electrophoresed and blotted onto nitrocellulose using an electrophoresis system. Histochemistry and immunocytochemistry. For β-catenin localization studies, hMSCs were stained with a cy-3 conjugated anti-β-catenin antibody and nuclei were counterstained with pico-green dye. Specimens were processed as paraffin blocks and 8 longitudinal sections were prepared, deparaffinized and rehydrated, then stained with hematoxylin and eosin. For immunocytochemistry, sections were probed with an anti-human β-2-microglobulin antibody. An upright fluorescent microscope fitted with a high performance camera (and image analysis software was employed for imaging.
(In general: Immunoblotting shows a protein as a band on a membrane.)

Experiment [3] concerns hMSCs. Briefly: Membrane integrin expression by flow cytometric analysis. The experiment is classed as cell-based, human. The arrangement: CD49a x-mean / CD49b x-mean / CD49c x-mean / CD49e x-mean / CD51 x-mean / CD29 x-mean / CD36 x-mean / CD44 x-mean: unit not given here. Here is the method: For immunophenotyping, MSCs were recovered by brief trypsinization and incubated with one or more fluorophore-tagged antibodies or respective isotype controls for 30 min in a phosphate-buffered saline (PBS) containing 2% (v/v) FBS. After about three washes, a minimum of 20,000 cells were analyzed on a flow cytometer and data processed using machine-compatible software. Antibodies against the following cell surface antigens were used, including CD11b (clone BEAR1), CD14 (RM052), CD19 (J3-119), CD29 (MAR4), CD34 (581), CD36 (FA6.152), CD44 ([…]-26), CD45 (J.33), CD49a (SR84), CD49b (Gi9), CD49c (C3 II.1), CD49e (IIA1), CD51 (23C6), CD73 (AD2), CD79a (HM47), CD90 (Thy-1/310), CD105 (IG2), CD146 (TEA1/34), CD166 (3[…] (Tu39).
A general note: Flow cytometry measures light scatter and fluorescence of single cells or particles in a stream.

Experiment [4] has as its system calvarial defects. Briefly: Histology of 50-day calvaria (H&E, tetracycline tracing, blood vessels). The experiment is classed as in vivo, nude mice. Here is the method: Histochemistry and immunocytochemistry. For β-catenin localization studies, hMSCs were stained with a cy-3 conjugated anti-β-catenin antibody and nuclei were counterstained with pico-green dye. Specimens were processed as paraffin blocks and 8 longitudinal sections were prepared, deparaffinized and rehydrated, then stained with hematoxylin and eosin. For immunocytochemistry, sections were probed with an anti-human β-2-microglobulin antibody. An upright fluorescent microscope fitted with a high performance camera (and image analysis software was employed for imaging. Tetracycline tracing of in vivo calcium deposition. The tetracycline was imaged using an upright fluorescent microscope fitted with a high performance camera and analyzed using software. Embedding, sectioning and mounting was carried out on non-decalcified material. Semi-quantitative blood vessel measurements. Calvaria were fixed, decalcified and sectioned in paraffin and stained with hematoxylin and eosin as described. Using NIS-Elements image analysis software, the surface area of blood vessels in a defined ROI was calculated and totaled. The values were expressed as the mean of total blood vessel area from 3 animals per group. […] Using NIS-Elements image analysis software, the surface area of blood vessels in the 2D ROI was calculated for each section and totaled. […]

Setting [5] is: osteogenic media without dexamethasone, 8 days.
Setting [6] is: osteogenic medium lacking dex, 8 days.

Each structure is given as a SMILES string. Entries after “also recorded” stand apart in the source; their conditions may differ. Where only a bound is given, the exact number is not on record here.

For the compound `O=C1Nc2cc(Br)ccc2/C1=C1/Nc2ccccc2/C1=N\O` [BIO, bromo-indirubin-3′-mono-oxime], the ALP activity entry in experiment [1] (setting [5]) is “induced”. For the same compound, in experiment [1] (setting [6]), the “dose at which ALP activity dropped back to control levels” value is reported as “exceeding 400 nM” and the “dose of maximal effect on ALP activity” value was in the range of 100 to 200 nM. In experiment [2], the “nuclear levels of PPARγ” value is given as “reduced”, the “GSK3β in the cytoplasm” value is reported as “depletion” and the “nuclear β-catenin” value is recorded as “increased levels”.
In the case of `O=C(Nc1ccccc1)c1cc([N+](=O)[O-])ccc1Cl` [GW9662, 2-chloro-5-nitro-N-phenyl-benzamide], the ALP activity entry in experiment [1] (hMSCs in osteogenic media with GW9662 vs DMSO) is on record as “dose-dependent increase; also recorded: substantially upregulated; also recorded: substantially up-regulated; also recorded: increased”. Moreover, in experiment [1] (setting [5]), the ALP activity result is listed as “induced”. In experiment [1] (setting [6]), the “dose at which ALP activity dropped back to control levels” value is greater than 1.0 µM. In experiment [3] (GW-treatment), this compound gave a CD29 % pos of 99.97%, a CD29 x-mean of 135, a CD36 % pos of 0.68% and a CD36 x-mean of 1.89. In experiment [3] (GW-treatment), this compound returned a CD44 % pos of 96.24%, a CD44 x-mean of 7.84, a CD49a % pos of 87.07% and a CD49a x-mean of 3.28. In experiment [3] (GW-treatment), this compound yielded a CD49b % pos of 43.09%, a CD49b x-mean of 5.69, a CD49c % pos of 99.93% and a CD49c x-mean of 21.80. For the same compound, in experiment [3] (GW-treatment), the CD49e % pos was 99.99%, the CD49e x-mean was 81.50, the CD51 % pos worked out at 99.92% and the CD51 x-mean came out at 15.30. For the same compound, in experiment [3] (irrespective of GW9662 treatment), the “CD36 on the surface of hMSCs” value is “No substantial expression”. In experiment [2], the “nuclear levels of PPARγ” value was “reduced”, the “GSK3β in the cytoplasm” value is “depletion” and the “nuclear β-catenin” value is listed as “increased levels”. Besides, the “new bone formation, histology” value in experiment [4] (day 50) was “new bone formation was detected”. In experiment [4] (day 50, blood vessels), the “ability of MSCs to initiate angiogenesis at trauma sites” value was “had not affected”.
